From patent publication US9174964B2, “AMPK-activating piperidinyloxy-substituted 2,3-dihydro-1H-indene-1-amine compounds and pharmaceutical compositions including the same” (Rigel Pharmaceuticals, Inc., priority 2007, dated 2015)
Counter-ions that a name gives are not always drawn.

The molecules below were run against AMPK (assay: AMPK activation, enzyme-linked immunosorbent assay). Conditions: Table 2, AMPK activation, ELISA.
Type: biochemical
Method: Compounds 1-50 of Table 1 were assayed for their ability to activate AMPK using an enzyme-linked immunosorbent assay.
Compounds 51-60 of Table 1 were assayed for their ability to activate AMPK using an enzyme-linked immunosorbent assay.
Compounds 61-131 of Table 1 were assayed for their ability to activate AMPK using an enzyme-linked immunosorbent assay.
Compounds 137-141 and 143-155 of Table 1 were assayed for their ability to activate AMPK using an enzyme-linked immunosorbent assay.
Compounds 156-160 of Table 1 were assayed for their ability to activate AMPK using an enzyme-linked immunosorbent assay.

Row | SMILES | EC50
1 | CC(C)(C)OC(=O)N1CCC(NC(=O)c2ccc(OC3CCN(c4ccc(C(F)(F)F)cc4)CC3)nc2)CC1 [Compound 9, tert-butyl 4-(6-(1-(4-(trifluoromethyl)phenyl)piperidin-4-yloxy)nicotinamido) piperidine-1-carboxylate] | 100 to 500 nM
2 | O=C(N[C@H]1CCN(Cc2ccncc2)C1)c1ccc(OC2CCN(c3ccc(C(F)(F)F)cc3)CC2)cn1 [Compound 30, (S)-N-(1-(pyridin-4-ylmethyl)pyrrolidin-3-yl)-5-(1-(4-(trifluoromethyl)phenyl)piperidin-4-yloxy)picolinamide] | < 100 nM
3 | N#Cc1ccc(CN2CCC(NC(=O)c3ccc(OC4CCN(c5ccc(C#N)cc5)CC4)cn3)CC2)cc1 [Compound 2, N-(1-(4-cyanobenzyl)piperidin-4-yl)-5-(1-(4-cyanophenyl)piperidin-4-yloxy)picolinamide] | < 100 nM
4 | O=C(NC1CCN(Cc2ccc(N3CCOCC3)cc2)CC1)c1ccc(OC2CCN(c3ccc(C(F)(F)F)cc3)CC2)cn1 [Compound 40, N-(1-(4-morpholinobenzyl)piperidin-4-yl)-5-(1-(4-(trifluoromethyl)phenyl)piperidin-4-yloxy)picolinamide] | < 100 nM

Now from value to molecule:

Row | EC50 | SMILES
5 | 1000 to 5000 nM | O=C(NC1CCN(Cc2ccncc2)CC1)c1cccc(OC2CCN(c3ccc(C(F)(F)F)cc3)CC2)n1 [Compound 43, N-(1-(pyridin-4-ylmethyl)piperidin-4-yl)-6-(1-(4-(trifluoromethyl)phenyl)piperidin-4-yloxy)picolinamide]
6 | 100 to 500 nM | N#Cc1ccc(CN2CCC(NC(=O)c3ccc(OC4CCN(c5ccc(C(F)(F)F)cc5)CC4)nc3)CC2)cc1 [Compound 35, N-(1-(4-cyanobenzyl)piperidin-4-yl)-6-(1-(4-(trifluoromethyl)phenyl)piperidin-4-yloxy)nicotinamide]

Same assay, conditions: Table 3, AMPK activation, ELISA

Row | EC50 | SMILES
7 | 100 to 500 nM | O=S(=O)(NC1CCN(Cc2cccc(C(F)(F)F)c2)CC1)c1ccc(OC2CCN(c3ccc(C(F)(F)F)cc3)CC2)nc1 [Compound 59, N-(1-(3-(trifluoromethyl)benzyl)piperidin-4-yl)-6-(1-(4-(trifluoromethyl)phenyl)piperidin-4-yloxy)pyridine-3-sulfonamide]
8 | 100 to 500 nM | N#Cc1ccc(N2CCC(Oc3ccc(S(=O)(=O)NC4CCN(Cc5ccncc5)CC4)cn3)CC2)cc1 [Compound 52, N-(1-(pyridin-4-ylmethyl)piperidin-4-yl)-6-(1-(4-cyanophenyl)piperidin-4-yloxy)pyridine-3-sulfonamide]

Same assay, conditions: Table 4, AMPK activation, ELISA

Row | SMILES | EC50
9 | O=C(N[C@@H]1CCN(S(=O)(=O)c2cccnc2)C1)c1cc2cc(OC3CCN(c4ccc(C(F)(F)F)cc4)CC3)ccc2o1 [Compound 126, (R)-N-(1-(pyridin-3-ylsulfonyl)pyrrolidin-3-yl)-5-(1-(4-(trifluoromethyl)phenyl)piperidin-4-yloxy)benzofuran-2-carboxamide] | 1000 to 10000 nM
10 | O=C(NC1CCN(Cc2ccccc2)CC1)c1cc2cc(OC3CCN(Cc4ccc(Cl)cc4)CC3)ccc2o1 [Compound 72, N-(1-benzylpiperidin-4-yl)-5-(1-(4-chlorobenzyl)piperidin-4-yloxy)benzofuran-2-carboxamide] | 100 to 500 nM
11 | O=C(NC1CCN(Cc2ccncc2)CC1)c1cc2cc(OC3CCN(Cc4ccc(Cl)cc4)CC3)ccc2o1 [Compound 77, 5-(1-(4-chlorobenzyl)piperidin-4-yloxy)-N-(1-(pyridin-4-ylmethyl)piperidin-4-yl)benzofuran-2-carboxamide] | 100 to 500 nM
12 | O=C(N[C@@H]1CCNC1)c1cc2cc(OC3CCN(c4ccc(C(F)(F)F)cc4)CC3)ccc2o1 [Compound 121, (R)-N-(pyrrolidin-3-yl)-5-(1-(4-(trifluoromethyl)phenyl)piperidin-4-yloxy)benzofuran-2-carboxamide] | > 50000 nM
13 | NC(=O)c1ccc(CN2CCC(Oc3ccc4oc(C(=O)NC5CCN(Cc6ccncc6)CC5)cc4c3)CC2)cc1 [Compound 131, 5-(1-(4-carbamoylbenzyl)piperidin-4-yloxy)-N-(1-(pyridin-4-ylmethyl)piperidin-4-yl)benzofuran-2-carboxamide] | 1000 to 10000 nM
14 | CC(C)(C)OC(=O)N1CCC(NC(=O)c2cc3ccc(OC4CCN(c5ccc(C(F)(F)F)cc5)CC4)cc3o2)CC1 [Compound 82, tert-butyl 4-(6-(1-(4-(trifluoromethyl)phenyl)piperidin-4-yloxy)benzofuran-2-carboxamido)piperidine-1-carboxylate] | 100 to 500 nM
15 | O=C(NC1CCN(Cc2ccccc2)CC1)c1cc2cc(OC3CCN(Cc4ccc(F)c(F)c4)CC3)ccc2o1 [Compound 74, N-(1-benzylpiperidin-4-yl)-5-(1-(3,4-difluorobenzyl)piperidin-4-yloxy)benzofuran-2-carboxamide] | 100 to 500 nM

Other lines, results leading:

Row | EC50 | SMILES
16 | < 100 nM | N#Cc1ccc(CN2CCC(NC(=O)c3cc4ccc(OC5CCN(c6ccc(C(F)(F)F)cc6)CC5)cc4o3)CC2)cc1 [Compound 90, N-(1-(4-cyanobenzyl)piperidin-4-yl)-6-(1-(4-(trifluoromethyl)phenyl)piperidin-4-yloxy)benzofuran-2-carboxamide]
17 | 100 to 500 nM | CN(C(=O)c1cc2cc(OC3CCN(c4ccc(C(F)(F)F)cc4)CC3)ccc2o1)C1CCN(Cc2ccncc2)CC1 [Compound 104, N-methyl-N-(1-(pyridin-4-ylmethyl)piperidin-4-yl)-5-(1-(4-(trifluoromethyl)phenyl)piperidin-4-yloxy)benzofuran-2-carboxamide]
18 | 100 to 500 nM | O=C(NC1CCN(S(=O)(=O)c2cccnc2)CC1)c1cc2ccc(OC3CCN(c4ccc(C(F)(F)F)cc4)CC3)cc2o1 [Compound 106, N-(1-(pyridin-3-ylsulfonyl)piperidin-4-yl)-6-(1-(4-(trifluoromethyl)phenyl)piperidin-4-yloxy)benzofuran-2-carboxamide]
19 | < 100 nM | Cc1c(C(=O)NC2CCN(Cc3cccc(C#N)c3)CC2)oc2cc(OC3CCN(c4ccc(C(F)(F)F)cc4)CC3)ccc12 [Compound 66, N-(1-(3-cyanobenzyl)piperidin-4-yl)-3-methyl-6-(1-(4-(trifluoromethyl)phenyl)piperidin-4-yloxy)benzofuran-2-carboxamide]
20 | < 100 nM | Cc1c(C(=O)NC2CCN(Cc3ccncc3)CC2)oc2cc(OC3CCN(c4ccc(C(F)(F)F)cc4)CC3)ccc12 [Compound 65, 3-methyl-N-(1-(pyridin-4-ylmethyl)piperidin-4-yl)-6-(1-(4-(trifluoromethyl)phenyl)piperidin-4-yloxy)benzofuran-2-carboxamide]
21 | < 100 nM | N#Cc1ccc(N2CCC(Oc3ccc4oc(C(=O)NC5CCN(Cc6ccccc6)CC5)cc4c3)CC2)cc1 [Compound 71, N-(1-benzylpiperidin-4-yl)-5-(1-(4-cyanophenyl)piperidin-4-yloxy)benzofuran-2-carboxamide formate salt]

Same assay, conditions: Table 4, AMPK activation, ELISA; formate salt

Row | EC50 | SMILES
22 | < 100 nM | O=C(NC1CCN(Cc2ccncc2)CC1)c1cc2cc(OC3CCN(c4ccc(C(F)(F)F)cc4)CC3)ccc2o1 [Compound 105, N-(1-(pyridin-4-ylmethyl)piperidin-4-yl)-5-(1-(4-(trifluoromethyl)phenyl)piperidin-4-yloxy)benzofuran-2-carboxamide, formate salt]

Same assay, conditions: Table 5, AMPK activation, ELISA

Row | EC50 | SMILES
23 | < 100 nM | N#Cc1ccc(CN2CCC(NC(=O)c3cc4ccc(OC5CCN(c6ccc(C(F)(F)F)cc6)CC5)cc4s3)CC2)cc1 [Compound 144, N-(1-(4-cyanobenzyl)piperidin-4-yl)-6-(1-(4-(trifluoromethyl)phenyl)piperidin-4-yloxy)benzo[b]thiophene-2-carboxamide]
24 | < 100 nM | N#Cc1ccc(CN2CCC(NC(=O)c3sc4cc(OC5CCN(c6ccc(C(F)(F)F)cc6)CC5)ccc4c3Cl)CC2)cc1 [Compound 154, 3-chloro-N-(1-(4-cyanobenzyl)piperidin-4-yl)-6-(1-(4-(trifluoromethyl)phenyl)piperidin-4-yloxy)benzo[b]thiophene-2-carboxamide]
25 | < 100 nM | O=C(NC1CCN(Cc2ccncc2)CC1)c1sc2cc(OC3CCN(c4ccc(C(F)(F)F)cc4)CC3)ccc2c1Cl [Compound 151, 3-chloro-N-(1-(pyridin-4-ylmethyl)piperidin-4-yl)-6-(1-(4-(trifluoromethyl)phenyl)piperidin-4-yloxy)benzo[b]thiophene-2-carboxamide]
26 | 1000 to 50000 nM | O=C(NC1CCNCC1)c1cc2cc(OC3CCN(c4ccc(C(F)(F)F)cc4)CC3)ccc2s1 [Compound 150, N-(piperidin-4-yl)-5-(1-(4-(trifluoromethyl)phenyl)piperidin-4-yloxy)benzo[b]thiophene-2-carboxamide]
27 | < 100 nM | O=C(NC1CCN(Cc2ccncc2)CC1)c1cc2cc(OC3CCN(c4ccc(C(F)(F)F)cc4)CC3)ccc2s1 [Compound 138, N-(1-(pyridin-4-ylmethyl)piperidin-4-yl)-5-(1-(4-(trifluoromethyl)phenyl)piperidin-4-yloxy)benzo[b]thiophene-2-carboxamide]

Same assay, conditions: Table 6, AMPK activation, ELISA

Row | EC50 | SMILES
28 | 500 to 1000 nM | FC(F)(F)c1ccc(N2CCC(Oc3ccc4c(c3)CCC4NC3CCN(Cc4ccncc4)CC3)CC2)cc1 (stereo not drawn) [Compound 158, 1-(pyridin-4-ylmethyl)-N-(5-(1-(4-(trifluoromethyl)phenyl)piperidin-4-yloxy)-2,3-dihydro-1H-inden-1-yl)piperidin-4-amine]
29 | 500 to 1000 nM | Fc1ccc(CN2CCC(NC3CCc4cc(OC5CCN(c6ccc(C(F)(F)F)cc6)CC5)ccc43)CC2)cc1 (stereo not drawn) [Compound 159, 1-(4-fluorobenzyl)-N-(5-(1-(4-(trifluoromethyl)phenyl)piperidin-4-yloxy)-2,3-dihydro-1H-inden-1-yl)piperidin-4-amine]
30 | < 500 nM | N#Cc1ccc(CN2CCC(NC3CCc4cc(OC5CCN(c6ccc(C(F)(F)F)cc6)CC5)ccc43)CC2)cc1 (stereo not drawn) [Compound 160, 4-((4-(5-(1-(4-(trifluoromethyl)phenyl)piperidin-4-yloxy)-2,3-dihydro-1H-inden-1-ylamino)piperidin-1-yl)methyl)benzonitrile]
